The results in this text go back to a melting point compilation (Tetko et al.; mined from patent text by program, amines drawn as free bases though some values may be those of a salt).

What is called melting point is the temperature of the solid-liquid transition. With `CC(C)(C)C(=O)c1c[nH]c2ncc(-c3cccc(C#N)c3)nc12`, the melting point lay in the range of 248 to 249 °C.
Next, `CCCCN=C(O)c1cc([N+](=O)[O-])cc(Sc2ccccc2C(=O)O)c1C(=O)O`: 192 to 196 °C; `CN(C)NC(=O)C(C)(C)C`: 120 to 122 °C.
In the case of `CCCN(CCC)c1ccc(S(=O)(=O)NCCCCC(=O)O)cc1`, the melting point lay in the range of 95 to 98 °C.
The compound `CC(C)(C)C1Cc2cc([N+](=O)[O-])ccc2N1` (stereo unspecified) had a melting point of 110 to 112 °C.
The compound `CCCOC(=O)Cc1ccc2c(c1)C(=O)c1ccccc1CO2` yielded a melting point of 30 to 32 °C.
Compound `Cc1cc(C)cc(NC(=O)CN2CCN(c3ncccc3C#N)CC2)c1` had a melting point of 139 to 140 °C.
As for `CCc1nc(-c2ccccc2)c(NC(=O)Nc2ccccc2)s1`, the melting point lay within 171 to 173 °C.
`O=C(NCc1ccc(Br)cc1)c1cn(N2CCOCC2)c2ccc(CN3CCOCC3)cc2c1=O`: the melting point is 200 to 202 °C.
For `NC(c1ncn(N)n1)C1CCN(CC2COc3ccccc3O2)CC1` (stereo unspecified), the melting point was in the range of 157 to 158 °C.
The compound `COc1cc(N)c2nccc(C)c2c1Oc1ccc(F)cc1` came in with a melting point of 143 to 144 °C.
The value for `CCOC(=O)c1cnc2c3cc(NC(=O)CC(C)(C)C)ccc3ncn2c1=O` was 253 to 254 °C.
`CCOC(=O)c1cccn2cc(C(C)(C)C)nc12` showed a melting point of 72 to 74 °C.
`C=Cn1c(Cl)cc(Cl)c(O)c1=S` showed a melting point of 114 °C.
The value for `CCCCCCCCCCCCCCCCOCCO` was 42 to 44 °C; that for `CC(C)(C)c1cc(CCc2ccccc2NC(=O)NCCc2ccccn2)cc(C(C)(C)C)c1O` was 180 °C; that for `CCn1c(C)c(C2(N(c3ccccc3)c3ccccc3)OC(=O)c3cccnc32)c2ccccc21` (stereo unspecified) was 132 to 136 °C.
Regarding `CCN(CC)CCOc1ccc2ncn(/C=C/C(=O)OC)c(=O)c2c1`, the melting point is 131 to 133 °C.
Next, `CCCn1c(=O)c2c(NC)n(C(=O)OC)nc2n(Cc2cccc(Cl)c2)c1=O`: 164 to 166 °C.
Next, `O=C1OC(=O)c2cc3c(ccc4ccccc43)cc21`: 278 °C; `CCCCCC(=S)SCCC`: 55 to 56 °C.
`CCOc1cc2c(Cl)cc(C)nc2nc1C` had a melting point of 144 to 147 °C.
Consider `COc1cc(O)c2c(=O)c(OC)c(-c3ccc(O)c(OC)c3)oc2c1`, for which the melting point was in the range of 171 to 173 °C.
Next, `COc1ccccc1-c1cc2c(Nc3cccc(Cl)c3)ncnc2[nH]1`: 221 °C; `Cc1scc2c1N(C(=O)Cl)c1ccccc1NC2=O`: 238 to 239 °C; `Cc1nnsc1C(=O)Nc1ccccc1C(=O)O`: 223 °C.
Compound `CCNCc1ccc2nc(C)[nH]c(=O)c2c1` returned a melting point of over 260 °C.
In turn, `CC(C)(C)OC(=O)c1nc(-c2ccc(Cl)cc2Cl)n(-c2ccc(Cl)cc2)c1C#N` showed a melting point of 210 to 212 °C.
Compound `Oc1ccc(-c2noc3cc(O)ccc23)cc1` gave a melting point of 192 to 194 °C.
For `CC(C)c1cnc(NC(=O)Cc2csc(N)n2)s1`, the melting point was 201 to 203 °C.
Regarding `CCOC(=O)/C=C/c1ccc(C=Cc2nc(-c3ccc4ccccc4c3)oc2C)cc1`, the melting point was in the range of 186 to 187 °C.
Next, `O=C(NCC12CC3CC(CC(C3)C1)C2)c1cc(NCCNCC(O)c2ccccc2)ccc1Cl` (stereo unspecified): 63 to 64 °C; `Cc1nc2c(N)nc3ccccc3c2n1CCCCNC(=O)C1CCCCC1`: 192 to 193 °C.
For `O=c1[nH]c2cc(Sc3cccc4cnccc34)c([N+](=O)[O-])cc2[nH]1`, the melting point was over 270 °C.
Next, `COC(=O)Cc1csc2cc(-c3ccccc3)cn12`: 88 to 89 °C.
For `Clc1ccc(OCc2ccccc2)c(OCC2CO2)c1Cl` (stereo unspecified), the melting point lay in the range of 59 to 61 °C.
Next, `COC(=O)C1=C(C)NC(C)=C(C(=O)OC)C1c1cccc(Nc2c(NCCCN3CCN(C4CCCCC4)CC3)c(=O)c2=O)c1`: 210 to 212 °C; `O=C(CCN1CCCCC1)Nc1ccc2c(c1)C(=O)c1cc(NC(=O)CCN3CCCCC3)ccc1C2=O`: 240 °C.
As for `Cc1ccc2[nH]c(=O)cc(CCO)c2c1`, the melting point fell in the range of 252 to 255 °C.
The compound `O=c1ccc(C(c2ccccc2)c2ccccc2)n[nH]1` displayed a melting point of 161 to 162 °C.
`O=c1oc2ccccc2c(O)c1C1CC(c2ccc(-c3ccc(OCc4ccc(Br)cc4)cc3)cc2)Cc2ccccc21` (stereo unspecified) showed a melting point of 240 °C.
With `CCOC(=O)c1cc(Cl)c(Cl)c(C2=NOCC2)c1C`, the melting point fell in the range of 96 to 97 °C.
For `Cc1onc(-c2c(Cl)cccc2Cl)c1CSc1ccc(OCC(=O)O)c2c1CCC2`, the melting point lay within 151 to 152 °C.
With `CN(Cc1cc(C(F)(F)F)cc(C(F)(F)F)c1)C(=O)c1nc(Cl)c2ccccc2c1-c1ccccc1`, the melting point lay in the range of 176 to 177 °C.
The value for `CC(C(=O)c1c(O)c2cccnc2n(-c2ccccc2)c1=O)c1ccccc1` (stereo unspecified) was 140 to 151 °C.
As to `CC(C)(C)SC1CN(C(N)=O)CC1NS(=O)(=O)c1ccc(Oc2ccccc2)cc1` (stereo unspecified), the melting point lay in the range of 132 to 133 °C.
Compound `CCOC(=O)c1ncc2[nH]c3ccc(C4=CC(=O)CCC4)cc3c2c1C` gave a melting point of 245 to 248 °C.
The value for `CC(C(=O)OC(C)(C)C)c1ccc(N2Cc3ccc(Br)cc3C2=O)cc1` (stereo unspecified) was 164 to 165 °C; that for `O=C(Nc1ccc(N2CCOCC2=O)cc1)[C@H]1CCCN1C(=O)c1ccc(Cl)s1` was 195 °C.
Next, `COc1ccc(-c2nc3ccc(O)cc3[nH]2)cc1C12CC3CC(CC(C3)C1)C2`: 230 °C.
With `CON(O)C(=O)c1ccccc1`, the melting point lay within 58 to 60 °C.
The value for `CCOC(=O)c1ccc2[nH]c(C)c(SC)c2c1` was 127 to 130 °C; that for `CCOC(=O)c1cc(S(=O)(=O)N2CCN(CC)CC2)cnc1OCC` was 66 to 68 °C.
Compound `Cc1nc(-c2cncc(F)c2)sc1N(C)C(=S)NC1CC1` yielded a melting point of 117 to 119 °C.
In turn, `CCCCCn1c2ccccc2c2cc(C(=O)NN3CCCCC3)ccc21` came in with a melting point of 158 to 159 °C.
As to `O=C(O)N1CCN(C(=O)c2cccs2)CC1`, the melting point stood at 76 °C.
The value for `O=Cc1csc(N2CCOCC2)n1` was 107 to 108 °C.
Next, `CC(C)C[C@H](N)[C@@H](O)CCSCCc1ccccc1`: 95 to 96 °C.
Turning to `CN(C(=O)C1CCCCC1)c1ccccc1C(c1ccc(O)cc1)c1ccc(O)cc1`, the melting point fell in the range of 250 to 252 °C.
As to `O=C(c1ccc(Cl)cc1)C1(Oc2ccc(Cl)cc2)CC1`, the melting point was in the range of 69 to 71 °C.
`FC(F)(F)c1cccc(OC(c2ccc(Cl)cc2)c2ncco2)c1` (stereo unspecified): the melting point is 66 to 67 °C.
Take `CC(=O)Oc1ccc2c(c1)C(C(Cl)(Cl)Cl)OC(C(Cl)(Cl)Cl)O2` (stereo unspecified): the melting point lay within 142 to 144 °C.
`COc1cccc(C2=C(C(=O)c3ccc(O)cc3)c3ccc(OC)cc3CC2)c1`: the melting point lay within 197 to 198 °C.
Compound `CN(C)c1ccc2c(c1)C(=O)CC(c1ccccc1O)=N2` showed a melting point of 296 to 298 °C.
With `Oc1cc(-c2ccco2)c2oc(-c3ccc(O)c(F)c3)nc2c1`, the melting point was determined as 155 °C.
Take `O=C(O)COc1c(-c2cc(Cl)cc(Cl)c2)cc(C(=O)NCCCCCCc2ccccc2)cc1-c1cc(Cl)cc(Cl)c1`: the melting point is 151 to 159 °C.
Regarding `CCOC(=O)c1cnc2sccc2c1O`, the melting point was in the range of 137 to 139 °C.
Next, `CCOC(=O)Cc1ccc(NC2=NN(c3ccc(C)cc3)CC2)cc1`: 145 to 146 °C; `O=Cc1ccc2c(c1)ncn2-c1cccc(-c2ccccc2)c1`: 170 to 172 °C.
Take `COc1ccc(N2CCN(c3c(C)c(C)c4c(c3C)OC(C)(C)C4(O)c3ccc(C)cc3)CC2)cc1` (stereo unspecified): the melting point fell in the range of 162 to 164 °C.
The compound `O=c1c(Cc2ccncc2)c(-c2ccccc2)[nH]c2ccccc12` had a melting point of 222 to 224 °C.
`CNC(=O)c1cc(=O)c(-c2ccc(OC)c(OC)c2)co1` returned a melting point of 213 to 215 °C.
As to `Cc1cc2c(Cl)c(C#N)cnc2s1`, the melting point is 101 to 102 °C.
Consider `O=C1C(Br)CCN1c1ncc(C(F)(F)F)s1` (stereo unspecified), for which the melting point was in the range of 105 to 106 °C.
`O=C(C=Cc1ccc(OCc2ccccc2)c([N+](=O)[O-])c1)N1CCCCC1`: the melting point was 155 to 156 °C.
Compound `O=c1oc(-c2cccc(Cl)c2)nc2ccccc12` gave a melting point of 158 to 160 °C.
For the compound `N[C@@H](Cc1ccc(C(F)(F)F)cc1)[C@H](O)c1ccc(F)cc1F` (racemic), the melting point was in the range of 99 to 100 °C.
In turn, `CC(=O)c1ccc(-c2ccc(F)cc2F)cc1` showed a melting point of 82.5 to 83.5 °C.
For the compound `Cc1ccc(S(=O)(=O)N2[C@@H](CCn3cccn3)CC[C@H]2c2ccc(F)cc2)cc1` (racemic), the melting point turned out to be 121 °C.
As for `COc1cc(F)c(C)cc1C(=O)O`, the melting point was 125 to 127 °C.
`C=C(c1ccccc1)c1cc2cc(OC)ccc2[nH]1` gave a melting point of 119 to 121 °C.
On to `S=C(Cc1ccccc1)n1c(-c2cscn2)nc2ccccc21`, for which the melting point fell in the range of 122 to 123 °C.
Regarding `COc1cc2nc(N3CCN(C#N)CC3)nc(N)c2cc1OC`, the melting point worked out at 215 °C.
In the case of `O=C(CO/N=C/c1ccc([N+](=O)[O-])c(CO)c1)N1CCN(CC2CCCCC2)CC1`, the melting point came to 170 °C.
Regarding `CC#CCOc1ccc(S(=O)(=O)NC(C(=O)NO)c2ccc(OCCN3CCCC3)cc2)cc1` (stereo unspecified), the melting point is 70 °C.
The compound `N#CN(c1ccccc1)c1nc(N(C#N)c2ccccc2)nc(N(C#N)c2ccccc2)n1` displayed a melting point of 209 to 215 °C.
The compound `CC(C)C(=O)OC(OC(=O)NC1(C(=O)O)CC1)C(C)C` (stereo unspecified) came in with a melting point of 127 to 129 °C.
As for `CC1(C)CC=C(S(=O)(=O)c2ccccc2)CC1`, the melting point was in the range of 51 to 53 °C.
As for `CCCCNC(=O)C(C)(C)COc1cccc2nc(C)c(C(=O)O)c(N)c12`, the melting point fell in the range of 195 to 199 °C.
On to `CCN(CC)C(=O)C(C)N1C(=O)C(NC(=O)OCc2ccccc2)N=C(c2ccccc2)c2ccccc21` (stereo unspecified), for which the melting point is 170 to 171 °C.
Compound `CCOc1cc(Cc2cnc(N)nc2N)cc2c1OC(C)(C)C=C2Cl` yielded a melting point of 197 to 199 °C.
